In patent publication US9937210B2, “Method for isolating fraction having anti-inflammatory or osteoarthritis-inhibiting effects by using oyster shell chips” (Seojin Biotech Co., Ltd., priority 2012, dated 2018):
Several values for one entry are separate records, joined by “and”; a condition that tells them apart may be missing. Equal values may be shown once.

What was measured:
[1] = system: TNF-α; assay: TNF-α content in blood, ELISA, papain-induced arthritis; assay type: in vivo, mouse; conditions: DS 2 mg/kg/bw; fraction 3 100 and 200 mg/kg/bw; oral once daily 20 days
Protocol: The experiment animals were adapted in a lab environment for 1 week and then the body weight was measured. Eight animals were assigned to each group to have even body weight. In the normal group, the physiological saline 6 was injected in the right knee joint and then the physiological saline 0.2 ml was orally administered once a day for 20 days. In the treated groups, i.e., a control group, a drug-administered group and a fraction 3-administered group, papain 6 was injected in the right knee joint to induce osteoarthritis. The physiological saline in the control group, Diclofenac sodium (DS, 2 mg/kg/bw) in the drug-administered group, and 100 mg/kg/bw {below, called “fraction 3 (100)”} and 200 mg/kg/bw {below, called “fraction 3 (200)”} in the fraction 3-administered group of Example 2 were orally administered once daily at a predetermined time for 20 days. All subjects were lightly anesthetized with ether at the experiment end day to take a heart blood sample. The blood was centrifuged to isolate a serum. […] The contents of tumor necrosis factor-α (TNF-α), interleukin-1β (IL-1β) and interleukin-6 (IL-6) were measured using enzyme-linked immunosorbent assay (ELISA) kit, respectively. The effect of fraction 3 of the inflammatory cytokine TNF-α produced in large quantities in animals where arthritis was induced by injection of papain, was measured by ELISA method.

[2] = system: animal models of osteoarthritis C57BL/6J mouse; assay: Osteoarthritis index (histopathology, method of Rudolphi) in papain-induced osteoarthritis; assay type: in vivo
Protocol: (§1) 40 eight week-old animal models of osteoarthritis C57BL/6J mouse were purchased from Central Laboratory Animal Inc. (Seoul, Korea), adapted with a general diet for 1 week and then used in the experiments. The temperature and humidity of the breeding room were maintained at 20±2° C., 50±10%, the lightening conditions were such that the light was turned on and off every 12 hours and the light was kept on from 07:00˜19:00. During the experiment, the feedstuff (Orient Bio, Seoul, Korea) and water were to be freely taken.
(§2) The osteoarthritis was induced by the method given in the test guidelines of the effect of the herbal preparation presented by the Korean Food and Drug Administration. Papain (type IV, double crystallized, 15 units/mg, Sigma, USA) was adjusted to a concentration of 1.0% (w/v) in which 0.03 ML-cystein HCl (Sigma, USA) was supplemented for the activation of papain and then passed through the patellar ligament. […] 6 was administered in the right knee joint to induce osteoarthritis.
The experiment animals were adapted in a lab environment for 1 week and then the body weight was measured. Eight animals were assigned to each group to have even body weight. In the normal group, the physiological saline 6 was injected in the right knee joint and then the physiological saline 0.2 ml was orally administered once a day for 20 days. In the treated groups, i.e., a control group, a drug-administered group and a fraction 3-administered group, papain 6 was injected in the right knee joint to induce osteoarthritis. The physiological saline in the control group, Diclofenac sodium (DS, 2 mg/kg/bw) in the drug-administered group, and 100 mg/kg/bw {below, called “fraction 3 (100)”} and 200 mg/kg/bw {below, called “fraction 3 (200)”} in the fraction 3-administered group of Example 2 were orally administered once daily at a predetermined time for 20 days.
All subjects were lightly anesthetized with ether at the experiment end day to take a heart blood sample. The blood was centrifuged to isolate a serum. Immediately after taking a heart blood sample, the right hip joint and ankle joint were isolated and removed so as not to damage the knee joint. The tibial of the right knee joint was fixed in 10% neutral formalin solution for 24 hours and then used for the visual observation of the joints.
The osteoarthritis index for the observed histopathological lesions in the articular cartilage and synovial membrane was digitalized in accordance with a method of Rudolphi, at al. and is shown in Table 2 below.

[3] = system: animal models of osteoarthritis C57BL/6J mouse; assay: Visual observation of knee joint cartilage surface in papain-induced osteoarthritis; assay type: in vivo; conditions: DS 2 mg/kg/bw; fraction 3 100 and 200 mg/kg/bw; oral once daily 20 days
Protocol: as §1, §2
The experiment animals were adapted in a lab environment for 1 week and then the body weight was measured. Eight animals were assigned to each group to have even body weight. In the normal group, the physiological saline 6 was injected in the right knee joint and then the physiological saline 0.2 ml was orally administered once a day for 20 days. […]

[4] = system: IL-6; assay: Interleukin-6 content in blood, ELISA, papain-induced arthritis; assay type: in vivo, mouse; conditions: DS 2 mg/kg/bw; fraction 3 100 and 200 mg/kg/bw; oral once daily 20 days
Protocol: The experiment animals were adapted in a lab environment for 1 week and then the body weight was measured. Eight animals were assigned to each group to have even body weight. In the normal group, the physiological saline 6 was injected in the right knee joint and then the physiological saline 0.2 ml was orally administered once a day for 20 days. In the treated groups, i.e., a control group, a drug-administered group and a fraction 3-administered group, papain 6 was injected in the right knee joint to induce osteoarthritis. The physiological saline in the control group, Diclofenac sodium (DS, 2 mg/kg/bw) in the drug-administered group, and 100 mg/kg/bw {below, called “fraction 3 (100)”} and 200 mg/kg/bw {below, called “fraction 3 (200)”} in the fraction 3-administered group of Example 2 were orally administered once daily at a predetermined time for 20 days. All subjects were lightly anesthetized with ether at the experiment end day to take a heart blood sample. The blood was centrifuged to isolate a serum. Immediately after taking a heart blood sample, the right hip joint and ankle joint were isolated and removed so as not to damage the knee joint. […] The contents of tumor necrosis factor-α (TNF-α), interleukin-1β (IL-1β) and interleukin-6 (IL-6) were measured using enzyme-linked immunosorbent assay (ELISA) kit, respectively.

[5] = system: IL-1β; assay: Interleukin-1β content in blood, ELISA, papain-induced arthritis; assay type: in vivo, mouse; conditions: DS 2 mg/kg/bw; fraction 3 100 and 200 mg/kg/bw; oral once daily 20 days; p<0.05
Protocol: The experiment animals were adapted in a lab environment for 1 week and then the body weight was measured. Eight animals were assigned to each group to have even body weight. In the normal group, the physiological saline 6 was injected in the right knee joint and then the physiological saline 0.2 ml was orally administered once a day for 20 days. In the treated groups, i.e., a control group, a drug-administered group and a fraction 3-administered group, papain 6 was injected in the right knee joint to induce osteoarthritis. The physiological saline in the control group, Diclofenac sodium (DS, 2 mg/kg/bw) in the drug-administered group, and 100 mg/kg/bw {below, called “fraction 3 (100)”} and 200 mg/kg/bw {below, called “fraction 3 (200)”} in the fraction 3-administered group of Example 2 were orally administered once daily at a predetermined time for 20 days. All subjects were lightly anesthetized with ether at the experiment end day to take a heart blood sample. The blood was centrifuged to isolate a serum. […] The contents of tumor necrosis factor-α (TNF-α), interleukin-1β (IL-1β) and interleukin-6 (IL-6) were measured using enzyme-linked immunosorbent assay (ELISA) kit, respectively. The effect of fraction 3 of the inflammatory cytokine IL-1β produced in large quantities in animals where arthritis was induced by injection of papain was measured by ELISA method.

[6] = Papain + DS 2 mg/kg/bw oral once daily 20 days, group mean
[7] = Papain + DS 2 mg/kg/bw oral once daily 20 days, individual animals 1-8

## O=C(O)Cc1ccccc1Nc1c(Cl)cccc1Cl [DS, Diclofenac sodium]
[1]
  TNF-α content in blood compared with papain-administrated control group: significantly lower
[2]; DS 2 mg/kg/bw, fraction 3 100 and 200 mg/kg/bw, oral once daily 20 days, p<0.05
  osteoarthritis index compared with the papain-administered control group: significantly lower
[2]; [6]
  Cellularity score, Mean: 2.0
  Matrix structure score, Mean: 2.6
  Subchondral bone score, Mean: 1.1
  Synovial membrane score, Mean: 1.5
[2]; Papain + DS 2 mg/kg/bw oral once daily 20 days, group mean, papain control 19.8
  Sum of osteoarthric score, Mean: 7.4
[2]; [7]
  Cellularity score, per subject: 2
  Matrix structure score, per subject: 1 (3×) and 3 (4×) and 6
  Subchondral bone score, per subject: 3 (3×) and 0 (5×)
  Sum of osteoarthric score, per subject: 6 (2×) and 4 and 11 (2×) and 5 and 8 (2×)
  Synovial membrane score, per subject: 0 (3×) and 1 and 3 (4×)
[3]
  visual appearance of knee joint cartilage surface compared with papain-administered group: the scope of the discoloration was less and the elimination of visual cartilage surface was not observed
[4]
  IL-6 content in blood compared with papain-administrated control group: significantly lower
[5]
  IL-1β content in blood compared with papain-administrated control group: significantly lower
